For one data set, the system named is A427. Put plainly: Cell growth inhibition assay (Cell Titer Glo, 3 days). Format: cell-based, Human. The note with it: A427 (KRAS_G12D), single agent, mean ± std. The protocol: (§1) Human tumor cell lines from lung cancer, A427, A549, Calu1, Calu3, Calu6, COR-L23, HOP62, MV522, NCI-H1155, NCI-H1299, NCI-H1355, NCI-H1395, NCI-H157, NCI-H1573, NCI-H1666, NCI-1755, NCI-H1792, NCI-2009, NCI-H2030, NCI-H2122, NCI-H2291, NCI-H23, NCI-H2347, NCI-H358, NCI-H441, NCI-H460, NCI-H650, NCI-H727, SW1573 and SW900 were cultured in RPMI 1640 medium containing 10% fetal bovine serum (FBS). Cell line mutation data was collated for the status for the RAS and RAF genes. The data source is the cancer cell line mutation screening data published as part of the Catalog of Somatic Mutations in Cancer database (COSMIC) (Bamford S. et al. Br. J. Cancer. 2004. 91:355-58) and/or in house DNA sequencing.
(§2) Cells were seeded in a 96-well tissue culture plate (NUNC 136102) of RPMI medium containing 10% FBS at 500-2,000 cells per well. Approximately 24 hours after plating, cells were exposed to ten, two-fold or three-fold serial dilutions of either Compound A or B or the combination of the two agents at a 10:1 molar ratio (Compounds A and B respectively). The final dosing concentration range for Compound A was 2-1000 nM and was 0.2-100 nM for Compound B. Cells were incubated in the presence of compounds for 3 days. ATP levels were determined by adding Cell Titer Glo® (Promega) according to the manufacturer's protocol. Briefly, Cell Titer Glo® was added to each plate, incubated for 20 minutes then luminescent signal was read on the SpectraMax L plate reader with a 0.5 sec integration time. All assays were run at least in duplicate.
(§3) Inhibition of cell growth was estimated after treatment with compound or combination of compounds for three days and comparing the signal to cells treated with vehicle (DMSO). Cell growth was calculated relative to vehicle (DMSO) treated control wells. Concentration of compound that inhibits 50% of control cell growth (IC50) was back-interpolated when y=50% of DMSO treated control wells using nonlinear regression with the equation: […]

The subject of the next data set is Calu6. The data set is described as above. Format: cell-based, Human. The settings on record: Calu6 (KRAS_Q61K), single agent, mean ± std. The protocol:
as §1, §2, §3

In the next data set the test system is NCI-H1355. The description is as above. The note with it: NCI-H1355 (KRAS_G13C), single agent, mean ± std. Format: cell-based, Human. The protocol:
as §1, §2, §3

The test system of another data set is NCI-H1755. The description is as above. Format: cell-based, Human. The settings on record: NCI-H1755 (BRAF_G469A), single agent, mean ± std. The procedure:
as §1, §2, §3

In another data set the test system is NCI-H2009. Described as above. Format: cell-based, Human. The settings on record: NCI-H2009 (KRAS-G12A), single agent, mean ± std. The procedure: as §1, §2, §3
The subject of the next data set is NCI-H2347. The description is as above. The settings on record: NCI-H2347 (RAS_H, N_Q61R), single agent, mean ± std. Format: cell-based, Human. The protocol: as §1, §2, §3
The next data set deals with NCI-H358. Described as above. In kind it is cell-based, Human. The note with it: NCI-H358 (KRAS_G12C), single agent, mean ± std. The protocol:
as §1, §2, §3

The next data set has as its system NCI-H650. The data set is described as above. Format: cell-based, Human. The note with it: NCI-H650 (KRAS_Q61L), single agent, mean ± std. The procedure: as §1, §2, §3
The next data set deals with SW1573. Described as above. Format: cell-based, Human. The settings on record: SW1573 (KRAS_G12C), single agent, mean ± std. The procedure: as §1, §2, §3
The next data set concerns SW900. Described as above. In kind it is cell-based, Human. The note with it: SW900 (KRAS_G12V), single agent, mean ± std. The procedure:
as §1, §2, §3

The subject of another data set is 95 cancer cell lines. The procedure:
(Compound A) or mTOR inhibitor (mTORi, Rapamycin) alone or a combination of both agents at a ratio of 1:2 (MEKi:mTORi) and cell proliferation/death was measured after 3 day drug exposure. Briefly, cells were plated in 384-well plates at 500 cells/well in culture media appropriate for each cell type, supplemented with 10% FBS and 1% penicillin/streptomycin, and incubated overnight at 37° C., 5% CO2. […] (two fold dilutions ranging from 7.3 uM-0.014 nM) or with mTOR inhibitor (two fold dilutions ranging from 14.6 uM-0.112 nM) or in combination with both compounds and incubated for 72 hours. Cell growth was measured using the CellTiterGlo (CTG) reagent (Promega) according to the manufacturer's protocol. Data were analyzed using the XLfit (IDBS Ltd.) curve-fitting tool for Microsoft Excel. Growth IC50 (gIC50) and Ymin values were generated using a four-parameter curve fit algorithm (XLFit algorithm #205).
Results were expressed as a percent of the t=0 and plotted against the compound concentration. The T=0 value is normalized to 100% and represents the number of cells at the time of compound addition. […] Formula below was used to calculate mutually exclusive combination index (CI). Data were reported as log CI, where the logarithm value of CI was calculated.
CI=IC50 of a+b/IC50 of a+IC50 of b+a/IC50 of b
Synergy is defined as CI<1, additivity as CI=1 and antagonism as CI>1. Considering the variability of these proliferation assays we arbitrarily defined log CI>0.1 as antagonism, between −0.1 and 0.1 as no significant effect and <−0.1 as synergy.

[1] abbreviates: read-out: IC50 Single Agent Compound A.
Setting [2] is: Homo sapiens, 72 h, read-out: IC50 Single Agent Compound B.

Like-named read-outs stand apart in the source and are kept apart here.

As usually defined, the IC50 is the concentration that gives 50% inhibition. Regarding “N-{3-[3-cyclopropyl-5-(2-fluoro-4-iodo-phenylamino)6,8-dimethyl;-2,4,7-trioxo-3,4,6,7-tetrahydro-2H-pyrido[4,3-d]pyrimidin-1-yl]phenyl}acetamide [Compound A]”, the concentration for half-maximal inhibition (IC50) was determined as 95 ± 68 nM in the data set on A427 (setting [1]); 5 nM in the data set with Calu6 (setting [1]); 67 ± 24 nM with NCI-H1355 (setting [1]); 45 ± 6 nM in the data set with NCI-H1755 (setting [1]); 204 ± 78 nM with NCI-H2009 (setting [1]); 7 ± 2 nM in the data set with NCI-H2347 (setting [1]). The IC50 in the data set with NCI-H358 (setting [1]) is 31 ± 10 nM; with NCI-H650 (setting [1]) it was 4 ± 2 nM; in the data set on SW1573 (setting [1]), greater than 1000 nM; with SW900 (setting [1]) it was 141 ± 2 nM. In addition, the “percentage of cell undergoing death (cytotoxic)” value in the data set with 95 cancer cell lines came out at 20%. Besides, the “cell lines undergoing death” value in the data set on 95 cancer cell lines (independent of the KRAS status) is on record as greater than 20%.
Regarding `CO[C@H]1C[C@@H]2CC[C@@H](C)[C@@](O)(O2)C(=O)C(=O)N2CCCC[C@H]2C(=O)O[C@H]([C@H](C)C[C@@H]2CC[C@@H](OCCO)[C@H](OC)C2)CC(=O)[C@H](C)/C=C(\C)[C@@H](O)[C@@H](OC)C(=O)[C@H](C)C[C@H](C)/C=C/C=C/C=C/1C` [Compound B, everolimus], the half-maximal inhibitory concentration (IC50) was greater than 100 nM in the data set on A427 (Homo sapiens, A-427, 72 h, read-out: IC50 Single Agent Compound B); greater than 100 nM in the data set with Calu6 (Homo sapiens, Calu-6, 72 h, read-out: IC50 Single Agent Compound B); greater than 100 nM in the data set on NCI-H1355 (setting [2]); greater than 100 nM in the data set with NCI-H1755 (setting [2]); greater than 100 nM in the data set on NCI-H2009 (setting [2]); greater than 100 nM in the data set with NCI-H2347 (setting [2]). For the same molecule, the IC50 in the data set on NCI-H358 (setting [2]), in the data set with NCI-H650 (setting [2]), in the data set with SW1573 (setting [2]) and in the data set on SW900 (setting [2]) was greater than 100 nM throughout.

The values above are taken from patent publication US20170065593A1, “Combination” (Novartis AG, priority 2009, published 2017).
